Assay results taken from US11020358B2, “Method for the anti-senescence of and/or rejuvenating stem cells” (GWO XI STEM CELL APPLIED TECHNOLOGY CO., LTD., priority 2014, dated 2021).

What was measured:
ADSCs [1] = assay: Analysis of proliferation rate (Ki67 staining); assay type: cell-based, human
Procedure: Four portions of equal volume of the above culture medium containing the sub-cultured ADSCs were separately handled by adding thereinto H2O2 (purchased from Sigma-Aldrich) at a final concentration of 100 μM and reacting for 2 hours to induce senescence of the ADSCs, replacing the culture medium with a fresh culture medium, adding thereinto TC (trans-cinnamaldehyde, purchased from Sigma-Aldrich) at a final concentration of 0, 2, 4 or 6 μM and reacting for 6 hours, so as to obtain “H2O2 group (i.e., treated with H2O2 for 2 hours, but not treated with TC),” “H2O2+TC2 group (i.e., treated with H2O2 for 2 hours and then treated with 2 μM of TC for 6 hours),” “H2O2+TC4 group (i.e., treated with H2O2 for 2 hours and then treated with 4 μM of TC for 6 hours),” and “H2O2+TC6 group (i.e., treated with H2O2 for 2 hours and then treated with 6 μM of TC for 6 hours)” ADSCs. Samples of the “untreated group,” “H2O2 group,” and “H2O2+TC6 group” ADSCs obtained from Example 1 (1) were washed with phosphate buffered saline (PBS) twice, fixed with 3.7% formaldehyde, and blocked with 10% FBS (diluted in PBS). Then, the cells of each sample were washed with PBS once, and reacted with a Ki67 antibody (purchased from Novus biological) at 4° C. overnight. […]

ADSCs [2] = assay: SA-β-gal activity assay in ADSCs; assay type: cell-based, human
Procedure: (§1) Four portions of equal volume of the above culture medium containing the sub-cultured ADSCs were separately handled by adding thereinto H2O2 (purchased from Sigma-Aldrich) at a final concentration of 100 μM and reacting for 2 hours to induce senescence of the ADSCs, replacing the culture medium with a fresh culture medium, adding thereinto TC (trans-cinnamaldehyde, purchased from Sigma-Aldrich) at a final concentration of 0, 2, 4 or 6 μM and reacting for 6 hours, so as to obtain “H2O2 group (i.e., treated with H2O2 for 2 hours, but not treated with TC),” “H2O2+TC2 group (i.e., treated with H2O2 for 2 hours and then treated with 2 μM of TC for 6 hours),” “H2O2+TC4 group (i.e., treated with H2O2 for 2 hours and then treated with 4 μM of TC for 6 hours),” and “H2O2+TC6 group (i.e., treated with H2O2 for 2 hours and then treated with 6 μM of TC for 6 hours)” ADSCs.
Four portions of equal volume of the above culture medium containing the sub-cultured ADSCs were handled by adding thereinto TC at final concentrations of 0, 2, 4 and 6 μM respectively, and reacting for 6 hours to obtain “untreated group (i.e., without any treatment),” “TC2 group (i.e., treated only with 2 μM of TC),” “TC4 group (i.e., treated only with 4 μM of TC)” and “TC6 group (i.e., treated only with 6 μM of TC)” ADSCs.
It has been known that senescent cells in acidic environment (e.g., pH 6.0) show the activity of SA-β-gal. Therefore, the senescence level of cells can be reflected by measuring the expression level of SA-β-gal in the cells.
(§2) The ADSCs in each sample of the group obtained from Example 1 (1) were washed with PBS twice, fixed with 3% formaldehyde and washed with PBS once. […]
The staining solution was removed. […] The cells were observed and photographed under a microscope with 10-fold magnification, and the percentage of SA-β-gal activity-positive cells was calculated.

ADSCs [3] = assay: Semiquantitative RT-PCR of senescence, cell cycle and pluripotency genes in ADSCs; assay type: cell-based, human
Procedure: as §1
The total cellular RNA of the ADSCs, BMMSCs and WJSCs in each sample of the group obtained from Example 1 (1) were extracted with an RNeasy Mini kit (purchased from Qiagen), and then reverse transcribed into cDNA by a reverse transcription kit (RT Pre Mix, purchased from iNtRON Biotechnology).
Each of the cDNA of the ADSCs of “untreated group,” “H2O2 group” and “H2O2+TC6 group” from Experiment (3-1) was handled as follows. […] The mixture was then placed in a revers transcription polymerase chain reaction (RT-PCR) machine. The RT-PCR reaction conditions were set as follows: i) 94° C. for 30 seconds, 55° C. for 30 seconds, and […] for 60 seconds, repeated for 30 cycles; ii) 72° C. for 10 minutes; and iii) cooling to 4° C. to stop the reaction. The RT-PCR product was analyzed by 2% agarose gel electrophoresis at a voltage of 100 volts for 30 minutes. Then, the gel was stained with ethidium bromide (EtBr) for 10 minutes, and photographed by a gel image documentation system (DOC PRINT DP-001FDC, VilberLourmat France).

WJSCs = assay: SA-β-gal activity assay in WJSCs; assay type: cell-based
Procedure: Three portions of equal volume of the above culture medium containing the sub-cultured WJSCs were provided. The first and second portions were handled by adding thereinto H2O2 at a final concentration of 100 μM, reacting for 2 hours to induce senescence of the WJSCs, replacing the culture medium with a fresh culture medium, adding thereinto TC at final concentrations of 0 and 6 μM, respectively, and reacting for 6 hours to obtain “H2O2 group (i.e., treated with H2O2 for 2 hours, but not treated with TC)” and “H2O2+TC6 group (i.e., treated with H2O2 for 2 hours and then treated with 6 μM of TC for 6 hours) WJSCs. The third portion without any treatment was referred to as “untreated group” WJSCs.
as §2
The staining solution was removed. […] The cells were observed and photographed under a microscope with 10-fold magnification, and the percentage of SA-β-gal activity-positive cells was calculated. […]

[4] = H2O2 group ADSCs compared to untreated group
[5] = H2O2+TC6 group ADSCs compared to H2O2 group

SMILES	number of the Ki67-positive cells (ADSCs [1]; H2O2 group ADSCs (100 μM 2 h), compared to untreated group)	number of the SA-β-gal activity-positive cells (ADSCs [2]; ADSCs, 100 μM H2O2 2 h, compared to untreated group)	expression level of the SIRT1 gene (semiquantitative RT-PCR) (ADSCs [3]; [4])	expression level of the p21 gene (semiquantitative RT-PCR) (ADSCs [3]; [4])	expression level of the p53 gene (semiquantitative RT-PCR) (ADSCs [3]; [4])	number of the SA-β-gal activity-positive WJSCs (WJSCs; H2O2 group (100 μM 2 h) compared to untreated group)	number of the Ki67-positive cells (ADSCs [1]; H2O2+TC6 group ADSCs (6 μM TC 6 h after H2O2))	number of the SA-β-gal activity-positive cells (ADSCs [2]; H2O2-senescent ADSCs, 2, 4 and 6 μM TC 6 h, compared to H2O2 group)	number of the SA-β-gal activity-positive cells (ADSCs [2]; non-senescent ADSCs, 2, 4 and 6 μM TC 6 h, compared to untreated group)	expression level of the NANOG gene (semiquantitative RT-PCR) (ADSCs [3]; [5])	expression level of the OCT4 gene (semiquantitative RT-PCR) (ADSCs [3]; [5])	expression level of the SIRT1 gene (semiquantitative RT-PCR) (ADSCs [3]; [5])	expression level of the p21 gene (semiquantitative RT-PCR) (ADSCs [3]; [5])	expression level of the p53 gene (semiquantitative RT-PCR) (ADSCs [3]; [5])	number of the SA-β-gal activity-positive WJSCs (WJSCs; H2O2+TC6 group (6 μM TC 6 h after H2O2) compared to H2O2 group)
OO [H2O2, reference compound]	significantly reduced	significantly increased	significantly decreased	significantly increased	significantly increased	significantly increased	–	–	–	–	–	–	–	–	–
O=C/C=C/c1ccccc1 [TC, trans-cinnamaldehyde]	–	–	–	–	–	–	increased to be similar to that in “untreated group”	significantly reduced	significantly reduced along with the increment in the concentration of TC	did not show significant difference	did not show significant difference	significantly increased	significantly decreased	significantly decreased	significantly reduced
